Our source for the Emax and IC50 values is patent US20240376092A1 (priority 2021, published 2024).

The structures appear in SMILES notation.

For the experiment, the system named is HEK293 cells expressing ΔCR PrP. As to the kind of experiment: cells. The note with it: for IC50: HEK293, read-out: IC50 (rescuing dose at 50%). In kind it is cell-based. Also noted: Emax: dose or concentration left out as unconfirmed.
Where [1] appears, read: HEK293, 48 h, read-out: % RMAX: maximum rescuing effect, expressed as percentage of the effect of SM3(LD24) at the same concentration.

As usually defined, the IC50 is the concentration that gives 50% inhibition.

For `CC(C)c1ccc2c(c1)-c1ccccc1S(=O)(=O)N2CC(=O)NC1CCCCC1` [SM180], under setting [1], the Emax at 1 µM was found to be 44%.

On to `CC(C)C(NC(=O)CN1c2ccc(Br)cc2-c2ccccc2S1(=O)=O)C(C)C` [SM223], for which the Emax at 1 µM under setting [1] came out at 54.7%.

As for `CC(C)CNC(=O)CN1c2ccc(Br)cc2-c2ccccc2S1(=O)=O` [SM174], under setting [1], the Emax at 1 µM was determined as 56.3%.

`O=C(CN1c2ccc(C(F)(F)F)cc2-c2ccccc2S1(=O)=O)N[C@H]1CC[C@H](O)CC1` [SM588, 2-[5,5-dioxido-9-(trifluoromethyl)-6H-dibenzo[c,e][1,2]thiazin-6-yl]-N-(trans-4-hydroxycyclohexyl)acetamide]: the Emax at 1 µM under setting [1] is 10.6%.

Consider `O=C(CN1c2c(Br)cccc2-c2ccccc2S1(=O)=O)NC1CCCCC1` [SM227, 2-(7-Bromo-5,5-dioxido-6H-dibenzo[c,e][1,2]thiazin-6-yl)-N-cyclohexylacetamide], for which, under setting [1], the Emax at 1 µM is 41.1%.

In the case of `O=C(CN1c2ccc(Br)cc2-c2ccccc2S1(=O)=O)NCC1CCCO1` (stereo not drawn) [SM172], the Emax at 1 µM under setting [1] turned out to be 40.6%.

As to `O=C1C(N2c3ccc(Br)cc3-c3ccccc3S2(=O)=O)CCN1C1CCCCC1` (racemic) [SM11, (R,S)-3-(9-Bromo-5,5-dioxido-6H-dibenzo[c,e][1,2]thiazin-6-yl)-1-cyclohexylpyrrolidin-2-one], under setting [1], the Emax at 1 µM came out at 43.9%.

Turning to `O=C(CN1c2ccc(O)cc2-c2ccccc2S1(=O)=O)NC1CCCCC1` [SM226, N-Cyclohexyl-2-(9-hydroxy-5,5-dioxido-6H-dibenzo[c,e][1,2]thiazin-6yl)acetamide], under setting [1], the Emax at 1 µM came to 37.9%.

Regarding `CN(C)CCOc1ccc2c(c1)-c1ccccc1S(=O)(=O)N2CC(=O)NC1CCCCC1` [SM230, N-Cyclohexyl-2-[9-[2-(dimethylamino)ethoxy]-5,5-dioxido-6H-dibenzo[c,e][1,2]thiazin-6-yl]acetamide], the Emax at 1 µM under setting [1] is 44.9%.

On to `O=C(CN1c2cccc(Cl)c2-c2ccccc2S1(=O)=O)NC1CCCCC1` [SM585, 2-(10-chloro-5,5-dioxido-6H-dibenzo[c,e][1,2]thiazin-6-yl)-N-cyclohexylacetamide], for which, under setting [1], the Emax at 1 µM was determined as 71.7%.

With `O=C(CN1c2cc(Cl)ccc2-c2ccccc2S1(=O)=O)NC1CCCCC1` [SM586, 2-(8-chloro-5,5-dioxido-6H-dibenzo[c,e][1,2]thiazin-6-yl)-N-cyclohexylacetamide], the IC50 amounted to 350 nM. The Emax at 1 µM under setting [1] amounted to 181%.

Turning to `O=C(CN1c2ccc(Br)cc2-c2ccccc2S1(=O)=O)NC1CC1` [SM165], the Emax at 1 µM under setting [1] is 65.6%.

As to `O=C(CCN1c2ccc(Br)cc2-c2ccccc2S1(=O)=O)NC1CCCCC1` [SM10, 3-(9-Bromo-5,5-dioxido-6H-dibenzo[c,e][1,2]thiazin-6-yl)-N-cyclohexylpropanamide], the Emax at 1 µM under setting [1] is 45.1%.

As for `Cc1n[nH]c2c1N(CC(=O)NC1CCCCC1)S(=O)(=O)c1ccccc1-2` [SM879, N-cyclohexyl-2-(3-methyl-5,5-dioxidopyrazolo[4,3-c][1,2]benzothiazin-4 (1H)-yl)acetamide], the Emax at 1 µM under setting [1] was determined as 22.5%.

As to `O=C(CN1c2ccccc2-c2ccccc2S1(=O)=O)NC1CCCCC1` [SM7, 2-(5,5-dioxido-6H-dibenzo[c,e][1,2]thiazin-6-yl)-N-cyclohexylacetamide], the Emax at 1 µM under setting [1] turned out to be 55.9%.

`O=S1(=O)c2ccccc2-c2cc(Br)ccc2N1CCNC1CCCCC1` [SM9, N-[2-(9-bromo-5,5-dioxido-6H-dibenzo[c,e][1,2]thiazin-6-yl)ethyl]cyclohexanamine]: the Emax at 1 µM under setting [1] is 45.2%.

As to `O=C(CN1c2ccc(F)cc2-c2ccccc2S1(=O)=O)NC12CC3CC(CC(C3)C1)C2` [SM224], the Emax at 1 µM under setting [1] turned out to be 71.5%.

For `O=C(CN1c2ccc(Br)cc2-c2ccccc2S1(=O)=O)Nc1ccccc1` [SM6, 2-(9-bromo-5,5-dioxo-6H-dibenzo[c,e][1,2]thiazin-6 (5H)-yl)-N-phenylacetamide], under setting [1], the Emax at 1 µM turned out to be 48.1%.

As to `CC(C)(C)NC(=O)CN1c2ccc(Br)cc2-c2ccccc2S1(=O)=O` [SM177], under setting [1], the Emax at 1 µM worked out at 58.4%.

Take `CC(C)NC(=O)CN1c2ccc(Br)cc2-c2ccccc2S1(=O)=O` [SM169]: the Emax at 1 µM under setting [1] worked out at 59.1%.

In the case of `CC(C)(C)NC(=O)CN1c2ccc(Cl)cc2-c2ccccc2S1(=O)=O` [SM179], the Emax at 1 µM under setting [1] came out at 59.8%.

Turning to `CSc1ccc2c(c1)-c1ccccc1S(=O)(=O)N2CC(=O)NC1CCCCC1` [SM340, N-cyclohexyl-2-[9-(methylthio)-5,5-dioxido-6H-dibenzo[c,e][1,2]thiazin-6-yl]acetamide], under setting [1], the Emax at 1 µM is 23%.

`COc1ccc2c(c1)-c1ccccc1S(=O)(=O)N2CC(=O)NC1CCCCC1` [SM225, N-Cyclohexyl-2-(9-methoxy-5,5-dioxido-6H-dibenzo[c,e][1,2]thiazin-6-yl)acetamide]: the Emax at 1 µM under setting [1] was found to be 61.5%.

As for `CCC(C)NC(=O)CN1c2ccc(Br)cc2-c2ccccc2S1(=O)=O` (stereo not drawn) [SM175], the Emax at 1 µM under setting [1] was found to be 66.2%.

In the case of `O=C(CN1c2ccc(Br)cc2-c2ccccc2S1(=O)=O)Nc1ccc(F)cc1` [SM222], under setting [1], the Emax at 1 µM came to 85.1%.

For `Cc1ccc2c(c1)-c1ccccc1S(=O)(=O)N2CC(=O)NC1CCCCC1` [SM181], the Emax at 1 µM under setting [1] is 59.4%.

As to `O=C(CN1c2ccc(C(F)(F)F)cc2-c2ccccc2S1(=O)=O)Nc1ccnc(Cl)c1` [SM880, N-(2-chloropyridin-4-yl)-2-[5,5-dioxido-9-(trifluoromethyl)-6H-dibenzo[c,e][1,2]thiazin-6-yl]acetamide], the Emax at 1 µM under setting [1] amounted to 78.3%.

Turning to `O=C(CN1c2ccc(Br)cc2-c2ccccc2S1(=O)=O)NC1CCCCCC1` [SM5, 2-(9-Bromo-5,5-dioxido-6H-dibenzo[c,e][1,2]thiazin-6-yl)-N-cycloheptylacetamide], the Emax at 1 µM under setting [1] came out at 52.8%.

For the molecule `O=C(CN1c2ccc(Cl)cc2-c2ccccc2S1(=O)=O)NC1CCCCC1` [SM254, 2-(9-chloro-5,5-dioxido-6H-dibenzo[c,e][1,2]thiazin-6-yl)-N-cyclohexylacetamide], the IC50 stood at 300 nM. The Emax at 1 µM under setting [1] was found to be 127%.

Consider `O=C(CN1c2ccc(Br)cc2-c2ccccc2S1(=O)=O)Nc1c(F)cccc1F` [SM163], for which the Emax at 1 µM under setting [1] was 104%.

Consider `Cc1cccc(NC(=O)CN2c3ccc(Br)cc3-c3ccccc3S2(=O)=O)c1` [SM171], for which, under setting [1], the Emax at 1 µM was 102%.

With `O=C(CN1c2cc(Cl)c(F)cc2-c2ccccc2S1(=O)=O)NC1CCCCC1` [SM336, 2-(8-chloro-9-fluoro-5,5-dioxido-6H-dibenzo[c,e][1,2]thiazin-6-yl)-N-cyclohexylacetamide], the IC50 was determined as 100 nM. For the same molecule, the Emax at 1 µM under setting [1] is 119%.

As for `O=C(CN1c2ccc(Br)cc2-c2ccccc2S1(=O)=O)NCc1ccccc1` [SM166], under setting [1], the Emax at 1 µM came to 48.6%.

Turning to `O=C(CN1c2ccc(Br)cc2-c2ccccc2S1(=O)=O)NCCCn1ccnc1` [SM220], under setting [1], the Emax at 1 µM came out at 51.7%.

In the case of `CN(C(=O)CN1c2ccc(Br)cc2-c2ccccc2S1(=O)=O)C1CCCCC1` [SM8, 2-(9-Bromo-5,5-dioxido-6H-dibenzo[c,e][1,2]thiazin-6-yl)-N-cyclohexyl-N-methylacetamide], the Emax at 1 µM under setting [1] came out at 46.2%.

Take `O=C(CN1c2ccc(Br)cc2-c2ccccc2S1(=O)=O)NCCN1CCOCC1` [SM178]: the Emax at 1 µM under setting [1] came to 44%.

For `O=C(CN1c2ccc(Br)cc2-c2ccccc2S1(=O)=O)NCCC1=CCCCC1` [SM173], the Emax at 1 µM under setting [1] was determined as 66%.

Take `O=C(CN1c2ccc(Br)cc2-c2ccccc2S1(=O)=O)NC1CCCC1` [SM4, 2-(9-Bromo-5,5-dioxido-6H-dibenzo[c,e][1,2]thiazin-6-yl)-N-cyclopentylacetamide]: the Emax at 1 µM under setting [1] is 66.6%.

Turning to `O=C(CN1c2ccc(Br)cc2-c2ccccc2S1(=O)=O)NC1CCCCCCC1` [SM162], the Emax at 1 µM under setting [1] is 71.8%.

For `CC(=O)c1cccc(NC(=O)CN2c3ccc(Br)cc3-c3ccccc3S2(=O)=O)c1` [SM168], the Emax at 1 µM under setting [1] was 46.2%.

Take `O=C(CN1c2ccc(C(F)(F)F)cc2-c2ccccc2S1(=O)=O)N[C@H]1CC[C@H](OS(=O)(=O)c2ccc([N+](=O)[O-])cc2)CC1` [SM589, trans-4-({2-[5,5-dioxido-9-(trifluoromethyl)-6H-dibenzo[c,e][1,2]thiazin-6-yl]acetyl}amino)cyclohexyl 4-nitrobenzenesulfonate]: the IC50 was found to be 1050 nM. In addition, the Emax at 1 µM under setting [1] was found to be 116%.

With `C=CCNC(=O)CN1c2ccc(Br)cc2-c2ccccc2S1(=O)=O` [SM164], under setting [1], the Emax is 53.7%.

Consider `O=C(CN1c2ccc(F)c(Cl)c2-c2ccccc2S1(=O)=O)NC1CCCCC1` [SM337, 2-(10-chloro-9-fluoro-5,5-dioxido-6H-dibenzo[c,e][1,2]thiazin-6-yl)-N-cyclohexylacetamide], for which the IC50 came to 970 nM. For the same molecule, the Emax at 1 µM under setting [1] was 109%.

For the molecule `O=C(CN1c2ccc(Br)cc2-c2ccccc2S1(=O)=O)NCc1ccco1` [SM167], the Emax at 1 µM under setting [1] was determined as 56.6%.

For the molecule `O=C(CN1c2ccc(Br)cc2-c2ccccc2S1(=O)=O)NCc1ccccn1` [SM176], the Emax at 1 µM under setting [1] is 37.9%.

As to `O=C(CN1c2cccc(C(F)(F)F)c2-c2ccccc2S1(=O)=O)NC1CCCCC1` [SM339, N-cyclohexyl-2-[5,5-dioxido-10-(trifluoromethyl)-6H-dibenzo[c,e][1,2]thiazin-6-yl]acetamide], the IC50 came to 340 nM. The Emax at 1 µM under setting [1] worked out at 112%.

On to `O=C(CN1c2cc(C(F)(F)F)ccc2-c2ccccc2S1(=O)=O)NC1CCCCC1` [SM338, N-cyclohexyl-2-[5,5-dioxido-8-(trifluoromethyl)-6H-dibenzo[c,e][1,2]thiazin-6-yl]acetamide], for which the Emax at 1 µM under setting [1] amounted to 87.6%.

Consider `O=C(CN1c2ccc(Br)cc2-c2ccccc2S1(=O)=O)Nc1cccnc1` [SM221], for which, under setting [1], the Emax at 1 µM was found to be 44.9%.

Regarding `O=C(CN1c2cc(Cl)cc(Cl)c2-c2ccccc2S1(=O)=O)NC1CCCCC1` [SM587, N-cyclohexyl-2-(8,10-dichloro-5,5-dioxido-6H-dibenzo[c,e][1,2]thiazin-6-yl)acetamide], the IC50 is 600 nM. The Emax at 1 µM under setting [1] turned out to be 168%.

With `O=C(CN1c2ccc(F)cc2-c2ccccc2S1(=O)=O)NC1CCCC1` [SM219], the Emax at 1 µM under setting [1] stood at 54%.
